How the values were obtained:
Cucumbers [1] = experiment: Respiration rate of cucumbers; type: in vivo, cucumber; conditions: 20° C., 5 days
Text: (§1) As used herein, the “respiration rate” of a product such as produce (e.g., a produce unit) refers to the rate at which the product releases CO2, and more specifically is the volume of CO2 (at standard temperature and pressure) released per unit time per unit mass of the product. In some embodiments, the respiration rate of a product can be measured by placing the product in a closed container of known volume that is equipped with a CO2 sensor, recording the CO2 concentration within the container as a function of time, and then calculating the rate of CO2 release required to obtain the measured concentration values. In some cases, the respiration rate of multiple produce units in a volume (e.g., a sealed or semi-sealed volume) is measured in a single measurement (e.g., as an average). It is understood that respiration rate may be determined by indirect methods, including, but not limited to, hyperspectral imaging, NIR, and other imaging or characterization processes.
Cucumbers were analyzed in the presence (2 ppm) and absence (0 ppm) of exogenous ethylene at 20° C. for 5 days. Four groups of cucumbers were analyzed. One group received no treatment. One group was treated with a chemical treatment (i.e., 1-MCP). One group was treated with a physical treatment A (40 g/L). […] The respiration rate and the mass loss rate of the cucumbers was measured

Persian limes [2] = experiment: Aesthetics (yellowing) of Persian limes; type: in vivo, Persian lime; conditions: over a 5 day period; same trends with 2 ppm ethylene
Experimental: (§2) Persian limes were analyzed in the presence (2 ppm) and absence (0 ppm) of exogenous ethylene at 20° C. for 5 days. Four groups of limes were analyzed. One group received no treatment. One group was treated with 1-MCP. One group was treated with physical treatment A (40 g/L). One group was treated with both 1-MCP and physical treatment A (40 g/L). The respiration rate of the limes was measured. The mass loss rate of the limes was measured.

Mexican avocados [3] = experiment: Respiration rate (CO2 release) of Mexican avocados; type: in vivo, avocado; conditions: for cumulative respiration factor (RF): Example 3
Text: as §1
As used herein, the term “respiration factor” is defined as the ratio of the cumulative respiration of uncoated produce (measured for a control group) to the cumulative respiration of the corresponding coated produce.
(§3) Four groups of 180 (i.e., 3 sets of 60) Mexican avocados were analyzed over four days. One group received no 1-MCP, and the other group was exposed for eight hours to 1-MCP using 2, 4, or 6 packets of 1-MCP (immobilized in cyclodextrin at 0.014%) per set. Each packet was wetted with water, and then placed in a sealed 30 L container along with 1 set of 60 avocados. The avocados were left in the sealed container for 8 hr. After 8 hours, the avocados were removed and the respiration rate was measured over the course of 4 days. Additionally, the firmness of the avocados (represented as durometer stage) was measured using a durometer.
(§4) Three groups of 60 Mexican avocados were analyzed over three days at ambient temperature. One group received no treatment. One group of avocados at stage 1 (i.e., after day 0) was exposed to 1-MCP for approximately 8 hours. One group of avocados at stage 3 (i.e., after day 2) was exposed to 1-MCP for approximately 8 hours. The respiration rate of the avocados was measured over the course of 3 days.
(§5) Three groups of 120 Mexican avocados were analyzed over about 5 days. One group received no treatment. One group was exposed to 1-MCP for 8 hours immediately after removal from cold storage at 4.5° C. (“cold 1-MCP”). One group was exposed to 1-MCP for 8 hours after the avocados spent 2 hours at ambient temperature (“semi-cold 1-MCP”). One group was exposed to 1-MCP for 8 hours after the avocados spent 6 hours at ambient temperature (“ambient 1-MCP”). The respiration rate of the avocados was measured over the course of 5 days. The firmness of the avocados was measured using a durometer.
Four groups of Mexican avocados were analyzed in order to investigate the minimum respiration peak that Mexican avocadoes should reach in order to ripen without quality issues. One group received no treatment. One group was treated with 1 layer of physical treatment (by bowl dipping and ambient drying; physical treatment A at 30 g/L with 3 g/L glycerol monocaprate). […] The respiration rate of the avocados was measured daily for three weeks. […]
To determine the difference in performance for treating avocados on a brush bed at varying concentrations before or after they have been put in ripening rooms, four flats of Mexican avocados were analyzed. […]

Mexican avocados [4] = experiment: Firmness / durometer stage of Mexican avocados; type: in vivo, avocado
Experimental: In some embodiments, a stage of a produce unit (e.g., an avocado) is based on firmness, and can be measured in shores (e.g., using a durometer) and/or pounds of pressure (e.g., using a penetrometer), then correlated to a stage. In some embodiments, a stage of a produce unit can be based on other parameters, such as respiration rate and/or color).
as §3, §4, §5
(§6) To determine the difference in performance for treating avocados on a brush bed at varying concentrations before or after they have been put in ripening rooms, four flats of Mexican avocados were analyzed. One flat received no treatment. The other three flats were treated with physical treatment A at 12, 22, and 32 g/L, respectively, applied using brush bed system and subsequently dried at 50° C. Avocados treated with physical treatment A were also triggered with ethylene, either before or after treatment with physical treatment A. The respiration rate of the avocados was measured. The firmness of the avocados was measured using a durometer.

Persian limes [5] = experiment: Mass loss rate of Persian limes; type: in vivo, Persian lime; conditions: not exposed to ethylene and in the presence of 2 ppm ethylene, 20° C., 5 days
Experimental: (§7) As used herein, the “mass loss rate” refers to the rate at which the product loses mass (e.g. by releasing water and other volatile compounds). The mass loss rate is typically expressed as a percentage of the original mass per unit time (e.g., percent per day).
as §2

Mexican avocados [6] = experiment: Quality defects of ripened Mexican avocados; type: in vivo, avocado
Experimental: as §3, §4, §6

Cucumbers [7] = experiment: Aesthetics (yellowing, shrivel) of cucumbers; type: in vivo, cucumber; conditions: 5 days exposure to exogenous ethylene (2 ppm)
Experimental: (§8) Cucumbers were analyzed in the presence (2 ppm) and absence (0 ppm) of exogenous ethylene at 20° C. for 5 days. Four groups of cucumbers were analyzed. One group received no treatment. One group was treated with a chemical treatment (i.e., 1-MCP). One group was treated with a physical treatment A (40 g/L). One group was treated with both a chemical treatment (i.e., 1-MCP) and physical treatment A (40 g/L). The respiration rate and the mass loss rate of the cucumbers was measured

Cucumbers [8] = experiment: Mass loss rate of cucumbers; type: in vivo, cucumber; conditions: 20° C., 5 days
Experimental: as §7, §8

[9] = Example 3, semi-cold and ambient 1-MCP
[10] = Example 1, once allowed to ripen (about two weeks), 6 packets 1-MCP

CC1=CC1 [1-MCP, 1-methylcyclopropene]
respiration rate (Cucumbers [1]; absence of ethylene): did not lower the overall respiration rate
respiration rate (Cucumbers [1]; exposed to ethylene (2 ppm)): mitigated the corresponding increase in respiration rate
yellowing / aesthetics (Persian limes [2]): reduced the yellowing
respiration rate (Mexican avocados [3]; Example 1, exposed 8 hr to 2, 4 or 6 packets 1-MCP (in cyclodextrin at 0.014%) in sealed 30 L container, measured over 4 days): high upon removal but quickly decreased and continued to decrease through 4 days post-exposure
CO2 production (Mexican avocados [3]; Example 2, 1-MCP exposure at stage 1): continuous decrease in CO2 production, back to day 0 levels
cumulative respiration factor (RF) (Mexican avocados [3]; cold 1-MCP: exposed 8 hours immediately after removal from 4.5° C. storage): 1.8 ×
cumulative respiration factor (RF) (Mexican avocados [3]; semi-cold (2 hours at ambient) and ambient (6 hours at ambient) 1-MCP exposure, 8 hours): 2.5 ×
RF (respiration factor) (Mexican avocados [3]; Example 7, 1-MCP 8 hours, regardless of subsequent ethylene exposure (24 hours at 200 ppm)): 1.62 ×
durometer stage (Mexican avocados [4]; Example 1, 6 packets of 1-MCP, day 4 (untreated stage 5)): 1.5
softening rate (Mexican avocados [4]; Example 2, 1-MCP applied at stage 3): slight effect
ripening (Mexican avocados [4]; Example 3, cold 1-MCP): ripening behavior was still observed
ripening stage relative to control group (Mexican avocados [4]; Example 3, cold 1-MCP, by the time the control group reached stage 5): over two stages behind the control group
ripening (Mexican avocados [4]; [9]): did not ripen effectively
softening rate reduction (Mexican avocados [4]; [9]): greater softening rate reduction than cold 1-MCP
mass loss rate (Persian limes [5]): no significant impact
checkerboarding (high variability of stage of ripeness) (Mexican avocados [6]; Example 1): observed
feel of the avocados (Mexican avocados [6]; Example 1): spongy
incidence of flesh adhesion (Mexican avocados [6]; [10]): > 30%
incidence of mold (Mexican avocados [6]; [10]): > 25%
internal quality (Mexican avocados [6]; Example 2): did not improve internal quality
incidence of mold and vascular browning (Mexican avocados [6]; Example 2, 1-MCP at stage 1 or stage 3, approximately 40 shore): 15-25%
yellowing (Cucumbers [7]): greater positive impact on the rate of yellowing
mass loss rate (Cucumbers [8]; absence of ethylene): no impact
mass loss rate (Cucumbers [8]; presence of ethylene (2 ppm)): lowered the mass loss rate
